Source: ChEMBL document CHEMBL1201862, “PubChem BioAssay data set” (2004)
Activity calls are given as the source filed them.

Columns and labels:
[1] = target: Genome polyprotein (Hepatitis C virus, UniProt Q2Q167); test: HCV core protein dimerization inhibitors, dose response, biochemical, TR-FRET (AID 2159); parameters: species or system Hepacivirus hominis;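 also: blocks dimerization of HCV core protein measured by TR-FRET between tagged core106 pairs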
[2] = cells
[3] = target: Major prion protein (Homo sapiens, UniProt P04156); type: functional, cell-based
[4] = target: Mitogen-activated protein kinase 10 (Homo sapiens, UniProt P53779); test: Dose response biochemical screening assay for inhibitors of c-Jun N-Terminal Kinase 3 (JNK3). [Related pubchem assays: 746 ]
Chain of Mitogen-activated protein kinase 10 (P53779 whole entry): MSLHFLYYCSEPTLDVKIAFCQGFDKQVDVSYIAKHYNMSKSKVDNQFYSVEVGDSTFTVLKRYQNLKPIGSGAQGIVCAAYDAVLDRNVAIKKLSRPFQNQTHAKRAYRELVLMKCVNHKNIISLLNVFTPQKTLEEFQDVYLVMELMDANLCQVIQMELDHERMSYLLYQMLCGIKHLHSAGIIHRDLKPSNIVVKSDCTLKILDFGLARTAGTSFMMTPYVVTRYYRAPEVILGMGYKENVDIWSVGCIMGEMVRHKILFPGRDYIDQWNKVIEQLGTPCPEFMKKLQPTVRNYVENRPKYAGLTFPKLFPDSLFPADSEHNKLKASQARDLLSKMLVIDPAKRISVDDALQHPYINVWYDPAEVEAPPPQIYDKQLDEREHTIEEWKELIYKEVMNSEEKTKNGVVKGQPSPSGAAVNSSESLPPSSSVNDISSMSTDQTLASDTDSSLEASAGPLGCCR

[5] = target: Protein Tat (Human immunodeficiency virus type 1 group M subtype B (isolate HXB2)(HIV-1), UniProt P04608); type: functional;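 also: tat binding to TAR RNA read out by fluorescence polarization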
Chain of Protein Tat (P04608 whole entry): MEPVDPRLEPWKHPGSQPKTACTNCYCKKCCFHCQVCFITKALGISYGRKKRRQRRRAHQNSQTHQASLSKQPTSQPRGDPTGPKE

[6] = Luminescence Cell-Based Dose Response HTS to Identify Activators of Luciferase Translation or Activity in H4 […] Cells. [Related pubchem assays: 1829 (Project Summary), 1814 (Primary HTS)]; type: functional
[7] = cytotoxicity toward NIH3T3 fibroblasts, dose response, counter-screen, cell-based, ATP luminescence, mouse fibroblasts (AID 2010); type: functional;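 also: cells exposed to compound for about 90 hours before reading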
[8] = test system: H4; test: Luminescence Cell-Based Dose Response HTS to Identify Activators of 5'UTR Stem-Loop Driven Prion Protein mRNA Translation in H4 Neuroglioblastoma Cells. [Related pubchem assays: 1829 (Project Summary), 1814 (Primary HTS)]; type: functional; details: Homo sapiens
[9] = C. albicans growth with fluconazole, confirmation, fluorescence, retest (AID 2467); type: functional, cell-based
[10] = Luminescence Cell-Based Dose Confirmation HTS to Identify Activators of 5'UTR Stem-Loop Driven Alpha-Synuclein mRNA Translation in H4 Neuroglioblastoma Cells. [Related pubchem assays: 1829 (Project Summary), 1814 (Primary HTS)]; type: functional
[11] = target: T1, Replicative DNA helicase DnaB (Mycobacterium tuberculosis, UniProt P9WMR3); test: DnaB intein splicing inhibitors, dose response, biochemical, cell-free fluorescence (AID 449749); type: functional
T1 sequence (P9WMR3 whole entry): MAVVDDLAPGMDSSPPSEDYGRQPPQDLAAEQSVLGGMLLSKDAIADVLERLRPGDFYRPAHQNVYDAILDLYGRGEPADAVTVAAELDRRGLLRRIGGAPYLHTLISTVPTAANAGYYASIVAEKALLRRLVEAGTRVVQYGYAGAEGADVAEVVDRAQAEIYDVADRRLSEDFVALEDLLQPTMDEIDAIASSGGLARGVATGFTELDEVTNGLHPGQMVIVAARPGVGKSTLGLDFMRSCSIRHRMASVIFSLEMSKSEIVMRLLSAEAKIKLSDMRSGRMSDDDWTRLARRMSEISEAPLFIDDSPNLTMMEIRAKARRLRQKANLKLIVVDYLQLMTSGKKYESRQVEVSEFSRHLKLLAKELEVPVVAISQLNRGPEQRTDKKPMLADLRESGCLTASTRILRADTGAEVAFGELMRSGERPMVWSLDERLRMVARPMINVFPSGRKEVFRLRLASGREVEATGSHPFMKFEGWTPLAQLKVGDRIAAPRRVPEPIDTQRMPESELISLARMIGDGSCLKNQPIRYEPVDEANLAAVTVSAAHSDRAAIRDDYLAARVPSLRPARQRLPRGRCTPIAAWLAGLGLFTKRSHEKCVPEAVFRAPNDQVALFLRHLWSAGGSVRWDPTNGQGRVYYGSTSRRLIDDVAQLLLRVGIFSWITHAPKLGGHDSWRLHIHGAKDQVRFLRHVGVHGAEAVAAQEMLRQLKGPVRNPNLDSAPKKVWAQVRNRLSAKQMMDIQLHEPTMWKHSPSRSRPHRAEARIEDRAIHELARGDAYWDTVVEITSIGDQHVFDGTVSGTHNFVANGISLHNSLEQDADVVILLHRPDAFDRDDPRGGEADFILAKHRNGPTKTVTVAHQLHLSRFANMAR

[12] = inhibitors of intracellular T. cruzi replication, confirmation, NIH3T3 host cells, beta-gal luminescence (AID 2044); type: functional, cell-based;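 also: intracellular parasites grown in NIH/3T3 mouse fibroblasts as host cells; luminescent beta-galactosidase reporter signal from transgenic T. cruzi replicating inside host cells; inhibitors lower the luminescence signal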
[13] = inhibitors of PGC1a acetylation in cells, dose response, cell-based, cherry-picked samples (AID 720514); type: functional;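 also: potency may reflect raised or lowered acetylation signal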
[14] = target: T2, Protein RecA (Mycobacterium tuberculosis, UniProt P9WHJ3); test: Fluorescence Cell-Free Homogeneous Dose Retest to Identify Inhibitors of RecA-Intein Splicing Activity. [Related pubchem assays (depositor defined):AID2097, AID2223, AID489010, AID492950]; type: functional
T2 sequence (P9WHJ3 whole entry): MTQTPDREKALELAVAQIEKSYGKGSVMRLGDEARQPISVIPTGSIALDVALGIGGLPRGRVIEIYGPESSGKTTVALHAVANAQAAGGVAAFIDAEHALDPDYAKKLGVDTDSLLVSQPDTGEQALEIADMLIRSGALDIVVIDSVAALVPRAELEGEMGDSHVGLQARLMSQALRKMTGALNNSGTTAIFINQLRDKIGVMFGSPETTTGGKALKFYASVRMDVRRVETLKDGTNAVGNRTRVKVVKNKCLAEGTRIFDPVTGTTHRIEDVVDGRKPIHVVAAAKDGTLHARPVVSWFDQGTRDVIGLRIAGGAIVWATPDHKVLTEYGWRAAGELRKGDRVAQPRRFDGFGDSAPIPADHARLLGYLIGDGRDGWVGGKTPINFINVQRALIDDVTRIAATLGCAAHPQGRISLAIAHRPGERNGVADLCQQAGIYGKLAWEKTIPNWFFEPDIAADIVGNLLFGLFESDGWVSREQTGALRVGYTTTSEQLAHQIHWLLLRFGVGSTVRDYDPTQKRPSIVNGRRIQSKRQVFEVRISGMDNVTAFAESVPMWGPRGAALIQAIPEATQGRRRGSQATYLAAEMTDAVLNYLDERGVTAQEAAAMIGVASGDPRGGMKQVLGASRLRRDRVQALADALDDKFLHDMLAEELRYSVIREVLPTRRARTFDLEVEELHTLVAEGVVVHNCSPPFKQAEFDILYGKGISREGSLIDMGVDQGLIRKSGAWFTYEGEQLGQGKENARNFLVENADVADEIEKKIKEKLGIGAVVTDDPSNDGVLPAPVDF

[15] = NIH-3T3 fibroblast cytotoxicity, dose response, cytotoxicity control, cell-based, fluorescence, Alamar Blue, secondary assay (AID 2327); type: functional;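 also: NIH-3T3 mouse fibroblasts cultured with fluconazole at 8 µg/mL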

Chain of Genome polyprotein (Q2Q167 whole entry): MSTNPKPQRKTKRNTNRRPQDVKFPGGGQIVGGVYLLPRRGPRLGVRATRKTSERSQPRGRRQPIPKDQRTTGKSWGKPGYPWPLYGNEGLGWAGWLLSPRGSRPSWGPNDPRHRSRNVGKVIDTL

Compound: CCOC(=O)c1sc(NC(=S)NC(=O)C2CCCC2)cc1C
- IC50 [1]: > 49.8 µM (not active)
- IC50 [2]: > 138 µM (inactive)
- IC50 [3]: 5.29 µM (active)

Compound: Oc1c2nc3cccc(Cl)c3c-2ncn1Cc1ccncc1
- IC50 [4]: > 93.1 µM (not active)

Compound: Nc1ccccc1NC1=CC(=O)CC(c2ccco2)C1 (stereo unspecified)
- IC50 [5]: 31.6 µM (inconclusive)

Compound: c1ccc(-c2onc3cc4c(cc23)OCCO4)cc1
- IC50 [4]: 50.1 µM (not active)

Compound: O=C(OCn1ncc(Cl)c(Cl)c1=O)c1ccc(C(F)(F)F)cc1
- EC50 [6]: > 120 µM (not active)
- EC50 [7]: 1.89 µM (active)
- EC50 [8]: > 120 µM (not active)
- EC50 [9]: > 38 µM (not active)
- EC50 [10]: > 120 µM (not active)
- AC50 [11]: 1.23 µM (active)
- EC50 [12]: 1.92 µM (active)
- AC50 [13]: 20.6 µM (active)
- EC50 [14]: 0.308 µM (active)
- EC50 [15]: 4.13 µM (inconclusive)
